Here are results for two compounds from patent publication US20080177101A1, “Synthesis of isotopically labeled alpha-keto acids and esters” (Spectra Gases, Inc., priority 2006, published 2008).

Each structure is given as a SMILES string.

A short description of data set [1]: Concentration studies: stability of pyruvic acid solutions in water at higher concentrations. In kind it is physicochemical. Further details: unit not given here. The conditions noted are these: light, about 22° C. to about 26° C. As to the method: Each of these commercial solutions were subjected to light for 6-weeks at temperatures ranging from about 22° C. to about 26° C. At each of the concentrations listed below, it was discovered that the pyruvic acid solutions were stable.

The conditions of data set [2]: background description; cited from earlier work.
Data set [3] in a line: Titration of aqueous sample 4 with sodium hydroxide, composition by HPLC. In kind it is physicochemical. The conditions noted are these: sample 4 titrated with sodium hydroxide to pH of about 6.2. An excerpt:
The molarity of sample 4 was confirmed to be 0.025M by titrating the aqueous sample with sodium hydroxide. […] It was also discovered that at pHs greater than 5.8, such as at a pH of about 6.2, some of the pyruvic acid was present in the form of a dimerized sodium salt. […] As such, it was discovered that to minimize dimmer formation, it may be necessary to control the pH of [1-^13C] pyruvate solutions, and in particular, any aqueous solution should be maintained at a pH of about 6.5 or less, more preferably 6.0 or less, and even more preferably 5.8 or less.

Data set [4] is described as follows: Shelf storage stability of [1-^13C] pyruvic acid in water, 1H and 13C NMR spectra compared. In kind it is physicochemical. The conditions noted are these: 0.025M in water. As to the method:
Samples of isotopically labeled [1-^13C] pyruvic acid, having Formula VI and synthesized as discussed immediately below, were subjected to various conditions as depicted in Table 1, in order to establish the compound's shelf storage stability.
The resulting [1-^13C] pyruvic acid was tested as follows in Table 1:
^1H and ^13C NMR spectra of the distilled [1-^13C] pyruvic acid in water (0.025M) were acquired at the onset of the study and prior to exposing the samples to the various conditions specified in Table 1. ^1H and ^13C NMR spectra were again acquired for each of the samples after being exposed to the aforementioned conditions on a weekly basis for 12-weeks. The spectra acquired after exposure were compared visually and appeared to remain unchanged as compared with the spectra acquired prior to exposure, i.e. the spectra were as expected for [1-^13C] pyruvic acid in water. As such, it was concluded that each of the samples were shelf stable. Similarly, ^1H and ^13C NMR spectra acquired after 17-weeks of exposure remained unchanged as compared with the spectra acquired prior to exposure.

[5] abbreviates: Sample 3, Room temperature (about 22° C. to about 26° C.), Dark.
Setting [6] is: Sample 4, Room temperature (about 22° C. to about 26° C.), Light.

Turning to `CC(=O)C(=O)O` [Pyruvic acid, 2-oxopropanoic acid], the “Stability After 6-weeks” value in data set [1] (Concentration 2.3 in water), in data set [1] (Concentration 2.8 in water), in data set [1] (Concentration 3.8 in water), in data set [1] (Concentration 5.7 in water) and in data set [1] (Concentration 11.3 in water) was “Stable” in each case. In addition, the Solubility in water result in data set [2] is “soluble in water”.

On to `CC(=O)[13C](=O)O` [[1-^13C] pyruvic acid], for which the “Share of the pyruvic acid accounted for by dimerized salt” value in data set [3] is recorded as 4-6%. Besides, the “Shelf stability, 12 weeks” value in data set [4] (Sample 1, −10° C., Dark) is “Stable”; in data set [4] (Sample 2, 4° C., Dark) it was “Stable”; in data set [4] (setting [5]) it was “Stable”; in data set [4] (setting [6]), “Stable”. Besides, the “Shelf stability, 17 weeks” value is recorded as “Stable” in data set [4] (Sample 1, −10° C., Dark); “Stable” in data set [4] (Sample 2, 4° C., Dark); “Stable” in data set [4] (setting [5]); “Stable” in data set [4] (setting [6]).
